Measurements from article PMC10746280, “Bacterial efflux pump modulators prevent bacterial growth in macrophages and under broth conditions that mimic the host environment” (mBio, 2023).

Columns and labels:
[1] = tested on: S. Typhimurium SL1344 (sifB::gfp) in RAW 264.7 macrophages; assay: SAFIRE macrophage assay: intracellular bacterial load (GFP signal within macrophages); type: cell-based, Salmonella enterica serotype Typhimurium
Method in brief: (§1)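 Compound or DMSO added 2 h after gentamicin-protected infection (MOI ~30, sifB::gfp SL1344) of RAW 264.7 cells and left to 18 h. Fixed cells imaged; intracellular GFP area per macrophage gives bacterial load, while retained adherent MitoTracker Red-stained macrophages define host toxicity.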

RAW 264.7 macrophages = assay: SAFIRE macrophage assay: host toxicity (adherent macrophage count, morphology); type: cell-based
Method in brief: as §1

[2] = 5 uM, 'Toxic' given instead of a score
[3] = 25 uM, 'Toxic' given instead of a score

CC(=O)NC1CCN(CC(O)COc2ccc(Cl)c(Cl)c2)CC1 (stereo not drawn) [CU063]
5 uM Avg Antibacterial Score [1, 2]: 102 | 25 uM Avg Antibacterial Score [1, 3]: 78 | 5 uM Avg Cell # Score (RAW 264.7 macrophages; 5 uM): 107 | 25 uM Avg Cell # Score (RAW 264.7 macrophages; 25 uM): 119

OC(COc1cc(Cl)cc(Cl)c1)CN1CCN(Cc2cccc3ccccc23)CC1 (stereo not drawn) [CU213]
5 uM Avg Antibacterial Score [1, 2]: Toxic | 25 uM Avg Antibacterial Score [1, 3]: Toxic | 5 uM Avg Cell # Score (RAW 264.7 macrophages; 5 uM): 41 | 25 uM Avg Cell # Score (RAW 264.7 macrophages; 25 uM): 15

OC(COc1ccc(Cl)c(Cl)c1)CN1CCn2c([3F])nnc2C1 (stereo not drawn) [CU157]
5 uM Avg Antibacterial Score [1, 2]: 115 | 25 uM Avg Antibacterial Score [1, 3]: 109 | 5 uM Avg Cell # Score (RAW 264.7 macrophages; 5 uM): 109 | 25 uM Avg Cell # Score (RAW 264.7 macrophages; 25 uM): 106

NCC1CCN(CC(O)COc2ccc(Cl)c(Cl)c2)C1 (stereo not drawn) [CU206]
5 uM Avg Antibacterial Score [1, 2]: 25 | 25 uM Avg Antibacterial Score [1, 3]: 12 | 5 uM Avg Cell # Score (RAW 264.7 macrophages; 5 uM): 124 | 25 uM Avg Cell # Score (RAW 264.7 macrophages; 25 uM): 87

CCOC(=O)c1cccc(OCC(O)CN2CCC(N)C2)c1 (stereo not drawn) [CU168]
5 uM Avg Antibacterial Score [1, 2]: 73 | 25 uM Avg Antibacterial Score [1, 3]: 55 | 5 uM Avg Cell # Score (RAW 264.7 macrophages; 5 uM): 101 | 25 uM Avg Cell # Score (RAW 264.7 macrophages; 25 uM): 111

NC1CCN(CC(O)COc2cccc(Cl)c2)CC1 (stereo not drawn) [CU188]
5 uM Avg Antibacterial Score [1, 2]: 33 | 25 uM Avg Antibacterial Score [1, 3]: 25 | 5 uM Avg Cell # Score (RAW 264.7 macrophages; 5 uM): 110 | 25 uM Avg Cell # Score (RAW 264.7 macrophages; 25 uM): 111

NC1CCN(CC(O)COc2ccc(Cl)cc2Cl)CC1 (stereo not drawn) [CU190]
5 uM Avg Antibacterial Score [1, 2]: 24 | 25 uM Avg Antibacterial Score [1, 3]: 21 | 5 uM Avg Cell # Score (RAW 264.7 macrophages; 5 uM): 101 | 25 uM Avg Cell # Score (RAW 264.7 macrophages; 25 uM): 87

Cc1cccc(OCC(O)CN2CCC(Nc3nccc(C(F)(F)F)n3)CC2)c1 (stereo not drawn) [CU108]
5 uM Avg Antibacterial Score [1, 2]: 28 | 25 uM Avg Antibacterial Score [1, 3]: Toxic | 5 uM Avg Cell # Score (RAW 264.7 macrophages; 5 uM): 94 | 25 uM Avg Cell # Score (RAW 264.7 macrophages; 25 uM): 27

NC1CCN(CC(O)COc2ccccc2C(F)(F)F)CC1 (stereo not drawn) [CU233]
5 uM Avg Antibacterial Score ([1]; 5 uM compound, n=1, DMSO solvent control = 98, rifampicin 2 μg/mL = 65): 47 | 25 uM Avg Antibacterial Score ([1]; 25 uM compound, n=1, DMSO solvent control = 98, rifampicin 2 μg/mL = 65): 34 | 5 uM Avg Cell # Score (RAW 264.7 macrophages; 5 uM compound, n=1, DMSO solvent control = 100): 128 | 25 uM Avg Cell # Score (RAW 264.7 macrophages; 25 uM compound, n=1, DMSO solvent control = 100): 104

c1ccc2c(CN3CCNCC3)cccc2c1 [CU207]
5 uM Avg Antibacterial Score [1, 2]: 98 | 25 uM Avg Antibacterial Score [1, 3]: 59 | 5 uM Avg Cell # Score (RAW 264.7 macrophages; 5 uM): 113 | 25 uM Avg Cell # Score (RAW 264.7 macrophages; 25 uM): 121

OC(COc1ccc(Cl)c(Cl)c1)CN1CCC(NC2CC2)C1 (stereo not drawn) [CU028]
5 uM Avg Antibacterial Score [1, 2]: 88 | 25 uM Avg Antibacterial Score [1, 3]: 41 | 5 uM Avg Cell # Score (RAW 264.7 macrophages; 5 uM): 85 | 25 uM Avg Cell # Score (RAW 264.7 macrophages; 25 uM): 134

OC(CNC1(c2ccccc2)CC1)COc1ccc(Cl)c(Cl)c1 (stereo not drawn) [CU132]
5 uM Avg Antibacterial Score [1, 2]: 102 | 25 uM Avg Antibacterial Score [1, 3]: Toxic | 5 uM Avg Cell # Score (RAW 264.7 macrophages; 5 uM): 82 | 25 uM Avg Cell # Score (RAW 264.7 macrophages; 25 uM): 39

OC(COc1ccc(Cl)cc1Cl)CN1CCC(Nc2ncccn2)CC1 (stereo not drawn) [CU047]
5 uM Avg Antibacterial Score [1, 2]: 107 | 25 uM Avg Antibacterial Score [1, 3]: 26 | 5 uM Avg Cell # Score (RAW 264.7 macrophages; 5 uM): 72 | 25 uM Avg Cell # Score (RAW 264.7 macrophages; 25 uM): 141

NC1CCN(CC(O)COc2ccccc2Cl)CC1 (stereo not drawn) [CU189]
5 uM Avg Antibacterial Score [1, 2]: 61 | 25 uM Avg Antibacterial Score [1, 3]: 49 | 5 uM Avg Cell # Score (RAW 264.7 macrophages; 5 uM): 107 | 25 uM Avg Cell # Score (RAW 264.7 macrophages; 25 uM): 109

CNC1CCN(C[C@H](O)COc2ccc(Cl)c(Cl)c2)C1 (stereo partly drawn) [CU162]
5 uM Avg Antibacterial Score [1, 2]: 68 | 25 uM Avg Antibacterial Score [1, 3]: 46 | 5 uM Avg Cell # Score (RAW 264.7 macrophages; 5 uM): 124 | 25 uM Avg Cell # Score (RAW 264.7 macrophages; 25 uM): 126

CC(=O)Nc1cccc(OCC(O)CN2CCC(Nc3nccc(C(F)(F)F)n3)C2)c1 (stereo not drawn) [CU100]
5 uM Avg Antibacterial Score [1, 2]: 105 | 25 uM Avg Antibacterial Score [1, 3]: 110 | 5 uM Avg Cell # Score (RAW 264.7 macrophages; 5 uM): 80 | 25 uM Avg Cell # Score (RAW 264.7 macrophages; 25 uM): 96

Cc1cccc(OCC(O)CN2CCC(Nc3nccc(C(F)(F)F)n3)C2)c1 (stereo not drawn) [CU114]
5 uM Avg Antibacterial Score [1, 2]: 96 | 25 uM Avg Antibacterial Score [1, 3]: 5.57 | 5 uM Avg Cell # Score (RAW 264.7 macrophages; 5 uM): 99 | 25 uM Avg Cell # Score (RAW 264.7 macrophages; 25 uM): 146

CC(=O)Nc1ccc(OCC(O)CN2CCC(Nc3nccc(C(F)(F)F)n3)CC2)cc1 (stereo not drawn) [CU076]
5 uM Avg Antibacterial Score [1, 2]: 102 | 25 uM Avg Antibacterial Score [1, 3]: 103 | 5 uM Avg Cell # Score (RAW 264.7 macrophages; 5 uM): 79 | 25 uM Avg Cell # Score (RAW 264.7 macrophages; 25 uM): 86
